From publication PMC9238271, “The quorum sensing peptide EntF* promotes colorectal cancer metastasis in mice: a new factor in the host-microbiome interaction” (BMC Biology, 2022)

Test: In vitro metabolization of EntF: formation of EntF* in feces homogenate
Format: in vitro ADME, C57BL/6 female mice
Conditions: for EntF* Conc / EntF* without metabolisation, Conc / EntF*/EntF %: Feces, initial concentration EntF 31.82 µM
Procedure: Krebs-Henseleit (KH) buffer (Sigma-Aldrich, Belgium) was prepared by dissolving the powdered medium in 900 mL water while stirring. Once the powder was completely dissolved, 0.3790 g CaCl2•2H2O and 2.098 g NaHCO3 were added to the solution. NaOH or HCl was used to adjust the pH to 7.4. The solution was brought to final volume (1000 mL) with ultrapure water.
Feces homogenates were prepared, after collecting fecal material from two untreated C57BL/6 female mice after cervical dislocation, by using the same procedures employed for colon tissue homogenate preparation. Before use, the homogenate was diluted to a final protein concentration of 0.6 mg/mL.
To avoid the absorption of EntF* onto plasticware and glassware, all tubes and containers were coated with a BSA-based anti-adsorption solution before use.
Five hundred microliters of tissue homogenate were mixed with 400 μL of pre-warmed KH buffer. Then, 100 μL of KH buffer (blank) or 1 mg/mL EntF peptide solution (test) were added to the diluted homogenate and incubated at 37 °C. […] After centrifugation at 16,000g for 30 min at 5 °C, supernatants were analyzed by LC1-MS1 for EntF* quantification.
EntF* was detected and quantified on a Waters Acquity® UPLC H-class system, connected to a Waters Xevo™ TQ-S triple quadrupole mass spectrometer with electrospray ionization (operated in positive ionization mode). Autosampler tray and column oven were kept at 10 ± 5 °C and 60 ± 5 °C, respectively. Chromatographic separation was achieved on a Waters Acquity® UPLC BEH Peptide C18 column (300 Å, 1.7 μm, 2.1 mm × 100 mm). The mobile phases consisted of 93/2/5 water/acetonitrile/DMSO (V/V/V) containing 0.1% formic acid (mobile phase A) and 2/93/5 water/acetonitrile/DMSO (V/V/V) containing 0.1% formic acid (mobile phase B), and the flow rate was set to 0.5 mL/min. A 10-μL aliquot from each sample was injected. The gradient program started with 80% of mobile phase A for 1 min, followed by a linear gradient to 40% of mobile phase A for 3.5 min. Gradient was then changed to 14.2% mobile phase A at 5 min, followed by a 1 min equilibration, before starting conditions were applied. EntF* retention time was between 4.25 and 4.45 min.
An optimized capillary voltage of 3.00 kV, a cone voltage of 20.00 V, and a source offset of 50.0 V were used. Acquisition was done in the MRM mode. The selected precursor ion for EntF* was m/z 865.7 with two selected product ions at m/z 202.08 (36 eV, b2 fragment) as quantifier and m/z 315.17 (31 eV, b3 fragment) as qualifier.

## CC(C)C[C@@H]1NC(=O)[C@H](CO)NC(=O)[C@H](Cc2ccccc2)NC(=O)[C@H](C(C)C)NC(=O)[C@@H](NC(=O)[C@H](CCC(=O)O)NC(=O)[C@@H](NC(=O)[C@H](CC(C)C)NC(=O)[C@H](CC(N)=O)NC(=O)[C@@H](N)CO)C(C)C)CSSC[C@@H](C(=O)N[C@@H](CC(N)=O)C(=O)O)NC(=O)[C@H](CCCCN)NC(=O)[C@H](CCCCN)NC(=O)[C@H](Cc2ccccc2)NC1=O (single isomer, unassigned) [EntF*]
Time 0
  EntF* Conc: 0.00 µM
  EntF* without metabolisation, Conc: 0.0 µM
  EntF*/EntF %: 0.0%
Time 1
  EntF* Conc: 0.50 µM
  EntF* without metabolisation, Conc: 0.529 µM
  EntF*/EntF %: 1.7%
Time 5
  EntF* Conc: 3.00 µM
  EntF* without metabolisation, Conc: 3.9 µM
  EntF*/EntF %: 12.4%
Time 10
  EntF* Conc: 2.69 µM
  EntF* without metabolisation, Conc: 4.6 µM
  EntF*/EntF %: 14.5%
Time 30
  EntF* Conc: 2.33 µM
  EntF* without metabolisation, Conc: 11.8 µM
  EntF*/EntF %: 37.1%
Mouse feces homogenate, Krebs-Henseleit buffer pH 7.4, 37 °C, LC1-MS1, average of X1-X4
  Formation rate, Faeces, Average: 1.71 %*min-1
Mouse feces homogenate, Krebs-Henseleit buffer pH 7.4, 37 °C, LC1-MS1, replicate X1
  Formation rate, Faeces: 1.6635 %*min-1
Mouse feces homogenate, Krebs-Henseleit buffer pH 7.4, 37 °C, LC1-MS1, replicate X2
  Formation rate, Faeces: 2.4748 %*min-1
Mouse feces homogenate, Krebs-Henseleit buffer pH 7.4, 37 °C, LC1-MS1, replicate X3
  Formation rate, Faeces: 1.4512 %*min-1
Mouse feces homogenate, Krebs-Henseleit buffer pH 7.4, 37 °C, LC1-MS1, replicate X4
  Formation rate, Faeces: 1.2367 %*min-1
